# Test results published in ChEMBL document CHEMBL1151169, “New beta-caryophyllene-derived terpenoids from the soft coral Sinularia nanolobata” (2004).
# Tests used:
# Format in all cases: functional
# KB = assay: Cytotoxicity against human KB cells by MTT assay; conditions: read-out: ED50 (the source's name)
# [1] = Cytotoxicity against human HEPA 59T/VGH cells by MTT assay; conditions: read-out: ED50 (the source's name)
# NCI-H661 = assay: Cytotoxicity against human NCI-H661 cells by MTT assay; conditions: read-out: ED50 (the source's name)
# [2] = Cytotoxicity against human Medulloblastoma cells by MTT assay; conditions: Medulloblastoma cell, read-out: ED50 (the source's name)
# HeLa = assay: Cytotoxicity against human HeLa cells by MTT assay; conditions: read-out: ED50 (the source's name)
# DLD-1 = assay: Cytotoxicity against human DLD1 cells by MTT assay; conditions: read-out: ED50 (the source's name)
smiles,measurement,setting,value
COc1cccc2c1C(=O)c1c(O)c3c(c(O)c1C2=O)C[C@@](O)(C(=O)CO)C[C@@H]3O[C@H]1C[C@H](N)[C@H](O)[C@H](C)O1 [DOXORUBICIN],EC50,KB,0.25 µg/mL
same,EC50,[1],0.47 µg/mL
same,EC50,NCI-H661,0.29 µg/mL
same,EC50,[2],0.41 µg/mL
same,EC50,HeLa,0.22 µg/mL
same,EC50,DLD-1,0.57 µg/mL
